Reference: US9029531B2 (Agios Pharmaceuticals, Inc., priority 2012, dated 2015)

Each compound was assayed against T1, glutaminase (GAC) (Homo sapiens, UniProt O94925) (assay: Glutaminase coupled endpoint enzymatic assay (Example A)). Settings: inhibition of glutaminase; assay of Example A or Example B.
T1 sequence (O94925 55-598 isoform O94925-3 limits assumed): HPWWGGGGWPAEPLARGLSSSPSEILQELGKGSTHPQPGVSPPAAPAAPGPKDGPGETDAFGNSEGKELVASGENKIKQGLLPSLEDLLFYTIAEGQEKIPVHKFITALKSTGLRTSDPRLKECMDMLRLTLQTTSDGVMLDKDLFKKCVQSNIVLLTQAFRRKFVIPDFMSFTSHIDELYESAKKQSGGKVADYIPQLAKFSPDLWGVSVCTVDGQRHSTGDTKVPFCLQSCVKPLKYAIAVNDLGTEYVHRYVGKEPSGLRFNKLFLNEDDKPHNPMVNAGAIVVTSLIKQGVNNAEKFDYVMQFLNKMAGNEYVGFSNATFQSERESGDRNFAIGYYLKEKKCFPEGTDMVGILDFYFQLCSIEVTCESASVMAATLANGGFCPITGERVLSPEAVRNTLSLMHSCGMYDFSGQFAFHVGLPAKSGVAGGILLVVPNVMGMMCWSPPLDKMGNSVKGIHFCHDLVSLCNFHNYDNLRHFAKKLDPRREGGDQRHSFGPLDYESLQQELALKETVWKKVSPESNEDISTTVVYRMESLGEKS
Assay type: biochemical
From the text: In certain embodiments, exemplary compounds of Formula I include the compounds described in Table 1 and in the Examples. A compound described herein may be tested for its ability to inhibit glutaminase, e.g., by an assay as described in the Examples. For simplicity, the inhibition activity of these compounds is represented as an IC50 tested in an assay of Example A or Example B in Table 1. […] “N/A” refers to compounds wherein the IC50 is unavailable.
In this example, the enzymatic activity of glutaminase is measured through a coupled endpoint assay. Glutamine and phosphate are supplied to GAC at a concentration equal to Km and AC50, respectively, and GAC concentration is adjusted to give a linear reaction for 60 minutes. The glutamate produced is converted to 2-OG by a kinetic excess of glutamate dehydrogenase. This second step is configured for 2×Km for NAD, since excess NAD is inhibitory. However, a kinetic excess of the third coupling enzyme, diaphorase, recycles NAD from NADH to keep the NAD concentration constant during the timecourse of the assay. Diaphorase, also supplied in kinetic excess, oxidizes NADH produced by GDH back to NAD with the concomitant reduction of rezasurin to the highly fluorescent resorufin. Resorufin in measured after the assay is stopped with SDS by Ex544/Em590. A reduction in the signal indicates inhibition of some component of the coupled enzyme system. Prospective hits are counterscreened against GDH/diaphorase alone to remove hits to the coupling enzyme system in a second assay.
2. Buffers • 2× Buffer (300 mM NaCl, 100 mM HEPES pH 8.5, 0.1% BSA, 0.5 mM EDTA, 100 mM sodium phosphate pH 8.5) • 5× Substrate Mix (1× Buffer final concentration, with 13 mM glutamine, 100 μM resazurin, 50 μg/ml diaphorase) • 1.2× Enzyme Mix (1× Buffer final concentration, with 0.875 μg/ml GAC, 1.56 mM NAD, 6.25 units/ml GDH) • Stop Mix (6% SDS in ddH2O) Reaction Procedure • 1. Add 1 μl compound in 100% DMSO • 2. Add 40 μl of Enzyme Mix and incubate for 60 minute at room temperature • 3. Add 10 μl of Substrate Mix to start reaction • 4. Stop reaction with 25 μl of 6% SDS and read Ex544 Em 590

IC50 [nM]	SMILES
< 100	O=C(Cc1ccc(N2CC(F)(F)C2)cn1)Nc1nnc([C@H]2CCC[C@H](c3nnc(NC(=O)Cc4ccc(N5CC(F)(F)C5)cn4)s3)C2)s1 [Compound 252, N,N′-(5,5′-((1S,3S)-cyclohexane-1,3-diyl)bis(1,3,4-thiadiazole-5,2-diyl))bis(2-(5-(3,3-difluoroazetidin-1-yl)pyridin-2-yl)acetamide)]
500 to 1000	O=C(Cc1ccccn1)Nc1nnc(C[C@H]2C[C@@H]2Cc2nnc(NC(=O)Cc3ccccn3)s2)s1 (racemic) [Compound 3, N,N′-(5,5′-(trans-cyclopropane-1,2-diylbis(methylene))bis(1,3,4-thiadiazole-5,2-diyl))bis(2-(pyridin-2-yl)acetamide)]
< 100	O=C(Cc1cccc(C2CCNCC2)c1)Nc1nnc([C@H]2CCC[C@H](c3nnc(NC(=O)Cc4cccc(C5CCNCC5)c4)s3)C2)s1 [Compound 272, N,N′-(5,5′-((1S,3S)-cyclohexane-1,3-diyl)bis(1,3,4-thiadiazole-5,2-diyl))bis(2-(3-(piperidin-4-yl)phenyl)acetamide)]
< 100	COc1nc(CC(=O)Nc2nnc([C@H]3CCC[C@H](c4nnc(NC(=O)Cc5csc(OC)n5)s4)C3)s2)cs1 [Compound 279, N,N′-(5,5′-((1S,3S)-cyclohexane-1,3-diyl)bis(1,3,4-thiadiazole-5,2-diyl))bis(2-(2-methoxythiazol-4-yl)acetamide)]
100 to 500	O=C(Cc1ccccn1)Nc1nnc([C@@H]2CCC[C@H](c3nnc(NC(=O)Cc4ccccn4)s3)C2)s1 [Compound 102]
1000 to 2000	COc1ccc(CC(=O)Nc2nnc([C@@H]3CCCC[C@@H](c4nnc(NC(=O)Cc5ccc(OC)cc5)s4)C3)s2)cc1 [Compound 130]
< 100	COCCOc1ccc(CC(=O)Nc2nnc([C@H]3CCC[C@H](c4nnc(NC(=O)Cc5cccc(N6CC(F)(F)C6)n5)s4)C3)s2)nc1 [Compound 280, 2-(6-(3,3-difluoroazetidin-1-yl)pyridin-2-yl)-N-(5-((1S,3S)-3-(5-(2-(5-(2-methoxyethoxy)pyridin-2-yl)acetamido)-1,3,4-thiadiazol-2-yl)cyclohexyl)-1,3,4-thiadiazol-2-yl)acetamide]
< 100	CCOc1ccnc(CC(=O)Nc2nnc([C@H]3CCC[C@H](c4nnc(NC(=O)Cc5cc(OCC)ccn5)s4)C3)s2)c1 [Compound 247, N,N′-(5,5′-((1S,3S)-cyclohexane-1,3-diyl)bis(1,3,4-thiadiazole-5,2-diyl))bis(2-(4-ethoxypyridin-2-yl)acetamide)]
< 100	COc1cccnc1CC(=O)Nc1nnc([C@H]2CCC[C@H](c3nnc(NC(=O)Cc4ncccc4OC)s3)C2)s1 (racemic) [Compound 116]
500 to 1000	O=C(Cc1ccccn1)Nc1nnc([C@@H]2CC[C@H](c3nnc(NC(=O)Cc4ccccn4)s3)C2)s1 [Compound 32]
100 to 500	O=C(Cc1cc(N2CC(O)C2)ccn1)Nc1nnc([C@H]2CCC[C@H](c3nnc(NC(=O)Cc4cc(N5CC(O)C5)ccn4)s3)C2)s1 [Compound 255, N,N′-(5,5′-((1S,3S)-cyclohexane-1,3-diyl)bis(1,3,4-thiadiazole-5,2-diyl))bis(2-(4-(3-hydroxyazetidin-1-yl)pyridin-2-yl)acetamide)]
1000 to 2000	O=C(Cc1ccccc1)Nc1nnc([C@@H]2CCC[C@H](c3nnc(NC(=O)Cc4ccccc4)s3)C2)s1 [Compound 10, N,N′-(5,5′-((1R,3S)-cyclohexane-1,3-diyl)bis(1,3,4-thiadiazole-5,2-diyl))bis(2-phenylacetamide)]
100 to 500	N#Cc1ccccc1CC(=O)Nc1nnc(C2CCC(c3nnc(NC(=O)Cc4ccccc4C#N)s3)C2)s1 (stereo not shown) [Compound 95]
< 100	O=C(Cc1ccccc1)Nc1nnc([C@@H]2CCC[C@@H](c3nnc(NC(=O)Cc4ccccc4)s3)C2)s1 [Compound 11, N,N′-(5,5′-((1R,3R)-cyclohexane-1,3-diyl)bis(1,3,4-thiadiazole-5,2-diyl))bis(2-phenylacetamide)]
< 100	COc1ccc(F)c(CC(=O)Nc2nnc([C@H]3CCC[C@H](c4nnc(NC(=O)Cc5cc(OC)ccc5F)s4)C3)s2)c1 [Compound 248, N,N′-(5,5′-((1S,3S)-cyclohexane-1,3-diyl)bis(1,3,4-thiadiazole-5,2-diyl))bis(2-(2-fluoro-5-methoxyphenyl)acetamide)]
< 100	COc1ccc(CC(=O)Nc2nnc([C@H]3CCC[C@H](c4nnc(NC(=O)Cc5ccc(OC)nc5)s4)C3)s2)cn1 [Compound 221, N,N′-(5,5′-((1S,3S)-cyclohexane-1,3-diyl)bis(1,3,4-thiadiazole-5,2-diyl))bis(2-(6-methoxypyridin-3-yl)acetamide)]
< 100	O=C(Cc1cccc(NC2CC2)c1)Nc1nnc([C@H]2CCC[C@H](c3nnc(NC(=O)Cc4cccc(NC5CC5)c4)s3)C2)s1 [Compound 261, N,N′-(5,5′-((1S,3S)-cyclohexane-1,3-diyl)bis(1,3,4-thiadiazole-5,2-diyl))bis(2-(3-(cyclopropylamino)phenyl)acetamide)]
100 to 500	O=C(Cc1cccnn1)Nc1nnc([C@H]2CCC[C@H](c3nnc(NC(=O)Cc4cccnn4)s3)C2)s1 [Compound 231, N,N′-(5,5′-((1S,3S)-cyclohexane-1,3-diyl)bis(1,3,4-thiadiazole-5,2-diyl))bis(2-(pyridazin-3-yl)acetamide)]
1000 to 2000	COc1ccc(CC(=O)Nc2nnc(C3CCCCC(c4nnc(NC(=O)Cc5ccc(OC)cc5)s4)C3)s2)cc1 (stereo not shown) [Compound 121]
100 to 500	Cn1cc(CC(=O)Nc2nnc([C@H]3CCC[C@H](c4nnc(NC(=O)Cc5cn(C)c6ccccc56)s4)C3)s2)c2ccccc21 [Compound 16, N,N′-(5,5′-((1S,3S)-cyclohexane-1,3-diyl)bis(1,3,4-thiadiazole-5,2-diyl))bis(2-(1-methyl-1H-indol-3-yl)acetamide)]
< 100	CS(=O)(=O)Nc1ccc(CC(=O)Nc2nnc([C@H]3CCC[C@H](c4nnc(NC(=O)Cc5ccc(NS(C)(=O)=O)cc5)s4)C3)s2)cc1 [Compound 238, N,N′-(5,5′-((1S,3S)-cyclohexane-1,3-diyl)bis(1,3,4-thiadiazole-5,2-diyl))bis(2-(4-(methylsulfonamido)phenyl)acetamide)]
100 to 500	O=C(Cc1cccnc1)Nc1nnc(C[C@H]2C[C@@H]2Cc2nnc(NC(=O)Cc3cccnc3)s2)s1 (racemic) [Compound 5, N,N′-(5,5′-(trans-cyclopropane-1,2-diylbis(methylene))bis(1,3,4-thiadiazole-5,2-diyl))bis(2-(pyridin-3-yl)acetamide)]
100 to 500	CC(=O)Nc1nnc([C@@H]2CCC[C@@H](c3nnc(NC(=O)Cc4ccccn4)s3)C2)s1 [Compound 26]
100 to 500	O=C(Cc1cccc(N2CC(F)(F)C2)n1)Nc1nnc([C@H]2CCC[C@H](c3nnc(NC(=O)C4CC4)s3)C2)s1 [Compound 283]
100 to 500	O=C(Cc1csc(N2CCOCC2)n1)Nc1nnc([C@H]2CCC[C@H](c3nnc(NC(=O)Cc4csc(N5CCOCC5)n4)s3)C2)s1 [Compound 276, N,N′-(5,5′-((1S,3S)-cyclohexane-1,3-diyl)bis(1,3,4-thiadiazole-5,2-diyl))bis(2-(2-morpholinothiazol-4-yl)acetamide)]
< 100	CCOc1ccc(CC(=O)Nc2nnc([C@H]3CCC[C@H](c4nnc(NC(=O)Cc5ccc(OCC)cn5)s4)C3)s2)nc1 [Compound 226, N,N′-(5,5′-((1S,3S)-cyclohexane-1,3-diyl)bis(1,3,4-thiadiazole-5,2-diyl))bis(2-(5-ethoxypyridin-2-yl)acetamide)]
100 to 500	O=C(Cc1cccc(N2CCC2)n1)Nc1nnc([C@H]2CCC[C@H](c3nnc(NC(=O)Cc4cccc(N5CCC5)n4)s3)C2)s1 [Compound 267, N,N′-(5,5′-((1S,3S)-cyclohexane-1,3-diyl)bis(1,3,4-thiadiazole-5,2-diyl))bis(2-(6-(azetidin-1-yl)pyridin-2-yl)acetamide)]
500 to 1000	COc1cccc(CC(=O)Nc2nnc(C3CCCCC(c4nnc(NC(=O)Cc5cccc(OC)c5)s4)C3)s2)c1 (stereo not shown) [Compound 120]
